# Data taken from patent US10130590B2, “Methods of treating cancer with atovaquone-related compounds” (DANA-FARBER CANCER INSTITUTE, INC., priority 2013, dated 2018).
# What was measured:
# [1] = tested on: U266 human multiple myeloma cells; experiment: U266 multiple myeloma xenograft in NSG mice; assay type: in vivo; conditions: 200 mg/kg daily by oral gavage
# Protocol: Female NSG mice (obtained from The Jackson Laboratory, Bar Harbor, Me.) were injected subcutaneously with 5×10^6 U266 cells in 30% Matrigel, and tumors were allowed to grow to a volume of approximately 100 mm^3. At that point, animals were treated daily by oral gavage with either vehicle (5% benzyl alcohol in water), generic atovaquone, or Mepron® brand atovaquone (GlaxoSmithKline LLC, Philadelphia, Pa.) at a dose of 200 mg/kg.
# mTOR pathway = experiment: Western blot of mTOR pathway markers (S6, S6K, 4E-BP1); assay type: cell-based
# Protocol: Western blotting was performed as previously described (Battle T E, Arbiser J, & Frank D A (2005) The natural product honokiol induces caspase dependent apoptosis in B-cell chronic lymphocytic leukemia (B-CLL) cells. Blood 106(2):690-697). Antibodies to phospho-MAPK (9101), total MAPK (9102), phospho-Y705 STAT3 (9131), phospho-S6 (2215), total S6 (2217), phospho-4E-BP1 (9451), total 4E-BP1 (9644), total RSK (9355), phospho-S6K (9234, 85 used at 1:5000), total S6K (2708), phospho-eIF2α (9721, used at 1:1000), total eIF2α (5324), ATF4 (11815, used at 1:1000), PDGFRβ (3169), IGF1Rβ (9750), EGFR (2232), and HER2 (2242) were from Cell Signaling Technology. Phospho-RSK antibody was from R&D (AF889). Antibodies to total STAT3 (sc-482) and gp130 (sc-656, used at 1:1000) were from Santa Cruz Biotechnology. Phospho-S727 STAT3 antibody was described previously (229). REDD1 antibody was from Proteintech (10638-1-AP, used at 1:1000). Antibody recognizing full-length and cleaved ATF6 was from Abcam (ab122897, used at 1:1000). Antibodies to tubulin (T5168) and beta actin (A5316) were from Sigma. All antibodies were used at 1:10000 dilution for western blot unless otherwise noted. For immunoprecipitations, cells were lysed in 500 μl lysis buffer (0.5% NP-40, 150 mM NaCl, 50 mM Tris pH 7.5, with protease and phosphatase inhibitors freshly added at 1:100 [Pierce, PI78443]) on ice for 15 minutes, then centrifuged for 10 minutes at 14,000 RPM and 4° C. The supernatant was transferred to a new tube and incubated with 10 μl JAK2 antibody (Santa Cruz sc-278) or a mix of two TYK2 antibodies, 10 μl of each (Santa Cruz sc-5271 and Cell Signaling Technology 9312). Immunoprecipitation was performed overnight at 4° C. with rotation. The next day, 75 μl of protein A/G beads (Santa Cruz sc-2003) were washed twice in lysis buffer, then incubated with immunoprecipitates overnight as before. The next day, the beads were spun down (1 min. at 7,500 RPM and 4° C.) and washed 3 times with 650 μl lysis buffer for 10 minutes at 4° C. with rotation, then boiled in 50 μl sample buffer+10% β-mercaptoethanol. For Western blot, 20 μl were loaded per lane. For detection of phospho-tyrosine, a mixture of two pan-phospho-tyrosine antibodies (Cell Signaling Technology 9411 and 9416, 1:1000 of each) was used. Antibody to phospho-Y1007/1008 JAK2 was from Cell Signaling 86 Technology (3771, used at 1:1000). Antibody to phospho-Y570 JAK2 was from Millipore (09-241, used at 1:1000). Luminometric Assays Luciferase reporter cell lines were described previously (186). Firefly luciferase values were normalized by concurrent cell viability. Cell viability was measured as ATP-dependent luminescence by Cell Titer Glo (Promega).
# K562 cells were treated with atovaquone (20 μM) or rapamycin (10 nM) for 1 hour or 5 hours, then analyzed by Western blot. […] The requirement for prolonged treatment to observe mTOR inhibition raised the possibility that this effect was mediated by an induced factor. To test this hypothesis, cells were pretreated with cycloheximide, a protein synthesis inhibitor. K562 cells were pre-treated with vehicle or cycloheximide (2 μg/ml) for 1 hour, then treated with vehicle or atovaquone (20 μM) for 5 hours. […] Similar results were obtained with actinomycin D, an inhibitor of mRNA synthesis.
# To evaluate the role of REDD1, RNA interference was used to knock down its expression in adherent SKBR3 cells, given the relative ease of introducing siRNA into these cells. SKBR3 cells were transfected with control or REDD1 siRNA for 48 hours, then treated with atovaquone (25 μM) for 4 hours.
# Next, U266 cells were treated with 12.5 or 25 μM buparvaquone or 1, 5, or 25 μM 2-(4-(trans-decahydronaphth-2-yl)butyl)-3-hydroxy-1,4-naphthoquinone (Sigma analog), or DMSO vehicle control, for 2.5 hours, after which cells were harvested and immunoblots were performed with antibodies for total and phospho STAT3 and total and phospho S6.
# K562 and U266 cells = experiment: Gene expression microarrays and qRT-PCR for atovaquone-induced genes; assay type: cell-based
# Protocol: Gene expression was analyzed in triplicate, normalized by 18S rRNA, and expressed as mean±SEM. For gene expression microarrays, RNA was isolated by Trizol, purified further on RNeasy columns, and profiled using Affymetrix Human Gene 1.0 ST arrays (Affymetrix). Results were deposited under GEO Accession: GSE46575.
# To discover the gene whose induction by atovaquone was responsible for mTOR inhibition, gene expression microarrays were performed in K562 and U266 cells. It was reasoned that induction of the causative factor must be common to all cell lines in which atovaquone inhibits the mTOR pathway. […] Of these, REDD1 is a known negative regulator of mTOR, whose activity is dependent on the TSC1/2-complex.
# [2] = tested on: PDGFR-β, EGFR, HER2, and IGF1R-β; experiment: Western blot of other receptors; assay type: cell-based; conditions: MEF, MDA-MB-468, SKBR3; 25 μM, 6 or 12 hours
# Protocol: Western blotting was performed as previously described (Battle T E, Arbiser J, & Frank D A (2005) The natural product honokiol induces caspase dependent apoptosis in B-cell chronic lymphocytic leukemia (B-CLL) cells. Blood 106(2):690-697). Antibodies to phospho-MAPK (9101), total MAPK (9102), phospho-Y705 STAT3 (9131), phospho-S6 (2215), total S6 (2217), phospho-4E-BP1 (9451), total 4E-BP1 (9644), total RSK (9355), phospho-S6K (9234, 85 used at 1:5000), total S6K (2708), phospho-eIF2α (9721, used at 1:1000), total eIF2α (5324), ATF4 (11815, used at 1:1000), PDGFRβ (3169), IGF1Rβ (9750), EGFR (2232), and HER2 (2242) were from Cell Signaling Technology. Phospho-RSK antibody was from R&D (AF889). Antibodies to total STAT3 (sc-482) and gp130 (sc-656, used at 1:1000) were from Santa Cruz Biotechnology. Phospho-S727 STAT3 antibody was described previously (229). REDD1 antibody was from Proteintech (10638-1-AP, used at 1:1000). Antibody recognizing full-length and cleaved ATF6 was from Abcam (ab122897, used at 1:1000). Antibodies to tubulin (T5168) and beta actin (A5316) were from Sigma. […] Cell viability was measured as ATP-dependent luminescence by Cell Titer Glo (Promega).
# MEF, MDA-MB-468, and SKBR3 cells were treated with atovaquone (25 μM) for 6 or 12 hours, then analyzed by Western blot for expression of gp130 and various other receptors. […]
# [3] = K562, 20 μM, only after 5 hours, efficacy comparable to rapamycin
smiles,measurement,setting,value
"O=C1C(O)=C([C@H]2CC[C@H](c3ccc(Cl)cc3)CC2)C(=O)c2ccccc21 [atovaquone, trans-2-[4-(4-chlorophenyl)cyclohexyl]-3-hydroxy-1,4-naphthalenedione]",median survival of the treated animals,[1],increase in the median survival
same,tumor growth rate,[1]; from tumor volume approximately 100 mm^3,prominent decrease in the growth rate
same,phosphorylation of 4E-BP1,mTOR pathway; [3],inhibited phosphorylation of 4E-BP1
same,phosphorylation of ribosomal protein S6,mTOR pathway; [3],inhibited phosphorylation
same,phosphorylation of p70S6K,"mTOR pathway; K562, 6 hours",inhibited phosphorylation of p70S6K
same,inhibition of S6 phosphorylation after cycloheximide pre-treatment,"mTOR pathway; K562 and U266, cycloheximide 2 μg/ml 1 hour",blocked in the presence of cycloheximide
same,inhibition of S6 phosphorylation after REDD1 knock down,"mTOR pathway; SKBR3, REDD1 siRNA 48 hours, 25 μM 4 hours",largely blocked
same,REDD1 expression,K562 and U266 cells,inducing the expression of REDD1
same,"levels of other receptors (PDGFR-β, EGFR, HER2, IGF1R-β)",[2],not affected
